Laboratory results published in patent publication US12606520B2, “Calpain-2 inhibitor compounds and methods of treatment” (WESTERN UNIVERSITY OF HEALTH SCIENCES, priority 2020, dated 2026).

What was measured:
[1] = Stability in mouse plasma at 37° C. (residual inhibition of purified human calpain-2); format: in vitro ADME; settings: mouse, mouse plasma, B-cyclodextrin formulation, 0.2 mM, read-out: Estimated half-life in mouse plasma (converted)
Procedure: NA112 (C12, 0.2 mM) was incubated with mouse plasma at 37° C. for the indicated periods of time. Aliquots were taken and the degree of inhibition of purified human calpain-2 was measured. Results were normalized to the maximum degree of inhibition (100%) measured at to.
NA112A in β-cyclodextrin formulation (10 μM) was incubated in mouse plasma at 37° C. for the indicated periods of time. Aliquots were taken and the degree of inhibition of purified human calpain-2 was measured. Results were normalized to the maximum degree of inhibition (50%) measured at t0.

[2] = Stability in mouse liver homogenate (residual inhibition of purified human calpain-2); format: in vitro ADME; settings: B-cyclodextrin formulation, read-out: Estimated half-life in mouse liver homogenate (converted)
Procedure: Aliquots were taken and the degree of inhibition of purified human calpain-2 was measured. Results were normalized to the maximum degree of inhibition (100%) measured at t0.

[3] = target: T1, calpain-2 (Mus musculus, UniProt O08529); assay: Calpain-2 activity after TBI in mice (i.p. dosing); format: in vivo; design: from tissue; host or cells: cerebellar P2 fractions / brain of wild-type mice after TBI
T1 sequence (O08529 1-700): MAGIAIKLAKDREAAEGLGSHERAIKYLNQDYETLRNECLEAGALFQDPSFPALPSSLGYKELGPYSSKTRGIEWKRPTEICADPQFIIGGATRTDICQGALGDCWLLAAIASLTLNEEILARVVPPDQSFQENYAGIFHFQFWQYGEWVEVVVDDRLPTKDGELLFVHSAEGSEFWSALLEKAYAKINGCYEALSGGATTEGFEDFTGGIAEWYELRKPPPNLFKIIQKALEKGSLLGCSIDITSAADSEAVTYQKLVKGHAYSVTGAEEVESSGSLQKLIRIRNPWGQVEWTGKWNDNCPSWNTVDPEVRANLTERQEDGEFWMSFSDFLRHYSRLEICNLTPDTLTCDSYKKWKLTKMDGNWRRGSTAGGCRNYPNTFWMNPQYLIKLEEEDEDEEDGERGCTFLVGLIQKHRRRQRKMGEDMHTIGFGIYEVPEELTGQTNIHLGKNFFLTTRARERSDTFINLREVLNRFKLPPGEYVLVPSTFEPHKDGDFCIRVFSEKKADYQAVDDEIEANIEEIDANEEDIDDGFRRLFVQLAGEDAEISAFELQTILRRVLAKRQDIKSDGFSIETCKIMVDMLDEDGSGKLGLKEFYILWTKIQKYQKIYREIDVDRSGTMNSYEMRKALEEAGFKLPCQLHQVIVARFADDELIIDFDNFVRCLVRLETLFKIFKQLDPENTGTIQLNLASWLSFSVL
T1 sequence (O88456 1-268 partner): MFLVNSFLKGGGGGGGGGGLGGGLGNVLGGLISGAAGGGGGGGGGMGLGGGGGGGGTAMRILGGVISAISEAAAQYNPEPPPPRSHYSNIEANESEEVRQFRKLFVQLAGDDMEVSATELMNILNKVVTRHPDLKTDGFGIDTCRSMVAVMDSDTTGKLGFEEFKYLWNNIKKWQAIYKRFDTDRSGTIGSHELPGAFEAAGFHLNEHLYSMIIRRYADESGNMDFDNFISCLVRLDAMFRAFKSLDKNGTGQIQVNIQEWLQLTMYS
Procedure: Calpain activity in cerebellar P2 fractions was measured 24 h after traumatic brain injury (TBI) in adult wild-type mice and the assay results for calpain-1 and calpain-2 are shown in FIG. 2. 0.1 or 1 mg/kg of NA112 was injected intraperitoneally 1 h after TBI. Each measurement of in vivo selectivity was obtained as follows: • Calpain-1 activity: Calpain activity with 20 μM Ca^2+. Normalized to Vehicle. • Calpain-2 activity: Calpain activity with 5 mM Ca^2+ minus Calpain activity with 20 μM Ca^2+. Results are means S.E.M. of 3 experiments.
Calpain activity in cerebellar P2 fractions was measured 24 h after TBI in adult WT mice, and vehicle or 0.1 or 1 mg/kg of NA112 (12) dissolved in DMSO or liposomal formulation (lipo) was injected intraperitoneally 1 h after TBI. […]
Vehicle (DMSO or liposomes) or 0.1 or 1 mg/kg of NA112 (12) dissolved in DMSO or liposomal formulation (lipo) was injected intraperitoneally 1 h after TBI in WT mice. Calpain activity was measured 24 h later in cerebellar P2 fractions. Calpain-1 activity was measured in the presence of 20 μM calcium and calpain-2 activity was measured as the difference between calpain activity measured in the presence of 5 mM calcium and that measured in the presence of 20 μM calcium (FIG. 11). In both cases, calpain activity was normalized to the values measured in vehicle-treated mice. […]

Row | Structure (SMILES) | half-life at 0.2 mM [1] [h] | half-life [2] [h] | Calpain-2 inhibition, DMSO vs liposomes ([3]; 0.1 or 1 mg/kg i.p. 1 h after TBI, cerebellar P2 fractions 24 h after TBI) | Calpain-2 inhibition in brain, male and female mice ([3]; 1 mg/kg i.p., 24 h after TBI)
1 | CCC(NC(=O)[C@H](CC(C)C)NC(=O)NCc1ccccc1)C(=O)C(=O)NCc1cc(OC)cc(OC)c1 (mixture of isomers) [NA112, (2S)-2-(3-benzylureido)-N-(1-((3,5-dimethoxybenzyl)amino)-1,2-dioxopentan-3-yl)-4-methylpentanamide] | 17 | 15 | same degree of calpain-2 inhibition | 
2 | CCC(NC(=O)[C@H](CC(C)C)NC(=O)NCc1ccccc1)C(=O)C(=O)NCc1cccc(Cl)c1OC (stereo partly drawn) [NA184, (2S)-2-(3-benzylureido)-N-(1-((3-chloro-2-methoxybenzyl)amino)-1,2-dioxopentan-3-yl)-4-methylpentanamide] |  |  |  | significantly inhibited calpain-2
